Data from patent US20100267561A1, “HERBICIDAL PYRIDAZINONE DERIVATIVES” (priority 2007, published 2010).
Like-named read-outs stand apart in the source and are kept apart here.

How the values were obtained:
Format in all cases: in vivo
[1] = tested on: large crabgrass (Digitaria sanguinalis); assay: Test A pre-/postemergence plant response; settings: Digitaria sanguinalis, 240 h, read-out: Plant response rating, Crabgrass, Large; for pest or weed control at 125 g/ha: 125 g ai/ha; for pest or weed control at 500 g/ha: 500 g ai/ha; for pest or weed control at 31 g/ha: 31 g ai/ha
In short: (§1)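 Seeds sown in loam–sand blend; test chemicals in non-phytotoxic solvent with surfactant applied preemergence as directed soil spray and, concurrently, postemergence to plants 2–10 cm tall at one- to two-leaf stage. Greenhouse ~10 days, then visual injury rating vs untreated controls on 0–100 scale (0 = no effect, 100 = complete control).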

[2] = tested on: barnyardgrass (Echinochloa crus-galli); assay: Test A pre-/postemergence plant response; settings: Echinochloa crus-galli, 240 h, read-out: Plant response rating, Barnyardgrass; for pest or weed control at 125 g/ha: 125 g ai/ha; for pest or weed control at 500 g/ha: 500 g ai/ha; for pest or weed control at 31 g/ha: 31 g ai/ha
In short: as §1

[3] = tested on: wheat (Triticum aestivum); assay: Test A pre-/postemergence plant response; settings: Triticum aestivum, 240 h, read-out: Plant response rating, Wheat; for plant injury at 125 g/ha: 125 g ai/ha; for plant injury at 500 g/ha: 500 g ai/ha; for plant injury at 31 g/ha: 31 g ai/ha
In short: as §1

[4] = tested on: pigweed (Amaranthus retroflexus); assay: Test A pre-/postemergence plant response; settings: Amaranthus retroflexus, 240 h, read-out: Plant response rating, Pigweed; for pest or weed control at 125 g/ha: 125 g ai/ha; for pest or weed control at 500 g/ha: 500 g ai/ha; for pest or weed control at 31 g/ha: 31 g ai/ha
In short: as §1

[5] = tested on: barnyardgrass (Echinochloa crus-galli); assay: Test B flooded paddy test plant response; settings: Echinochloa crus-galli, read-out: Plant response rating, Barnyardgrass; for pest or weed control at 62 g/ha: 62 g ai/ha; for pest or weed control at 250 g/ha: 250 g ai/ha
In short: (§2)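 Step one: raise plants to 2 leaves. Step two: flood pots 3 cm over the soil and apply compound into the water, keeping this depth. Step three: after 13–15 greenhouse days, score visually versus controls, 0–100, where 100 means complete control.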

[6] = tested on: umbrella sedge (Cyperus difformis); assay: Test B flooded paddy test plant response; settings: Cyperus difformis, read-out: Plant response rating, Sedge, Umbrella; for pest or weed control at 62 g/ha: 62 g ai/ha; for pest or weed control at 250 g/ha: 250 g ai/ha
In short: as §2

rice (Oryza sativa) = assay: Test B flooded paddy test plant response; settings: Oryza sativa, read-out: Plant response rating, Rice; for plant injury at 62 g/ha: 62 g ai/ha; for plant injury at 250 g/ha: 250 g ai/ha
In short: as §2

[7] = tested on: ducksalad (Heteranthera limosa); assay: Test B flooded paddy test plant response; settings: Heteranthera limosa, read-out: Plant response rating, Ducksalad; for pest or weed control at 62 g/ha: 62 g ai/ha; for pest or weed control at 250 g/ha: 250 g ai/ha
In short: as §2

[8] = post-emergence, Postemergence, 0 to 100 scale, 0 no effect, 100 complete control
[9] = pre-emergence, Preemergence, 0 to 100 scale (0 no effect, 100 complete control)
[10] = Flood (flooded paddy test), scale 0 to 100, 0 no effect, 100 complete control
[11] = Flood (flooded paddy test), 125 g ai/ha, scale 0 to 100, 0 no effect, 100 complete control
[12] = Flood, 31 g ai/ha, scale 0 to 100
[13] = post-emergence, Postemergence, 0 to 100 scale (0 no effect, 100 complete control)
[14] = pre-emergence, Preemergence, 0 to 100 scale, 0 is no effect, 100 is complete control

Compound	pest or weed control at 125 g/ha [1, 8] [%]	pest or weed control at 125 g/ha [1, 9] [%]	pest or weed control at 125 g/ha [2, 8] [%]	pest or weed control at 125 g/ha [2, 9] [%]	plant injury at 125 g/ha [3, 8] [%]	plant injury at 125 g/ha [3, 9] [%]	pest or weed control at 125 g/ha [4, 8] [%]	pest or weed control at 125 g/ha [4, 9] [%]	pest or weed control at 250 g/ha [5, 10] [%]	pest or weed control at 250 g/ha [6, 10] [%]	plant injury at 250 g/ha (rice (Oryza sativa); [10]) [%]	pest or weed control at 250 g/ha [7, 10] [%]	pest or weed control at 31 g/ha [1, 13] [%]	pest or weed control at 31 g/ha [1, 14] [%]	pest or weed control at 31 g/ha [2, 13] [%]	pest or weed control at 31 g/ha [2, 14] [%]	plant injury at 31 g/ha [3, 13] [%]	plant injury at 31 g/ha [3, 14] [%]	pest or weed control at 31 g/ha [4, 13] [%]	pest or weed control at 31 g/ha [4, 14] [%]	other results
Cc1cc(-c2ccc(Br)cc2)nn1-c1c(O)cnn(C2CCCCO2)c1=O (centres unmarked) [Compound 77, 4-[3-(4-bromophenyl)-5-methyl-1H-pyrazol-1-yl]-5-hydroxy-2-(tetrahydro-2H-pyran-2-yl)-3(2H)-pyridazinone]	70	10	50	0	70	0	0	0	0	0	0	0									pest or weed control at 500 g/ha [1, 8]: 100%; pest or weed control at 500 g/ha [1, 9]: 100%; pest or weed control at 500 g/ha [2, 8]: 100%; pest or weed control at 500 g/ha [2, 9]: 100%; plant injury at 500 g/ha [3, 8]: 90%; plant injury at 500 g/ha [3, 9]: 80%; pest or weed control at 500 g/ha [4, 8]: 0%; pest or weed control at 500 g/ha [4, 9]: 0%; pest or weed control at 62 g/ha [5, 10]: 0%; pest or weed control at 125 g/ha [5, 11]: 0%; pest or weed control at 31 g/ha [5, 12]: 0%; pest or weed control at 62 g/ha [6, 10]: 0%; pest or weed control at 125 g/ha [6, 11]: 0%; pest or weed control at 31 g/ha [6, 12]: 0%; plant injury at 62 g/ha (rice (Oryza sativa); [10]): 0%; plant injury at 125 g/ha (rice (Oryza sativa); [11]): 0%; plant injury at 31 g/ha (rice (Oryza sativa); [12]): 0%; pest or weed control at 62 g/ha [7, 10]: 0%; pest or weed control at 125 g/ha [7, 11]: 0%; pest or weed control at 31 g/ha [7, 12]: 0%
Cc1cn(-c2ccc(C(F)(F)F)cc2)nc1-c1c(O)cnn(C)c1=O [Compound 85, 5-hydroxy-2-methyl-4-[4-methyl-1-[4-(trifluoromethyl)phenyl]-1H-pyrazol-3-yl]-3(2H)-pyridazinone]	40	70	30	40	20	20	0	0	0	0	0	0	0	10	0	0	0	0	0	0	pest or weed control at 62 g/ha ([5]; Flood, scale 0 to 100): 0%; pest or weed control at 62 g/ha ([6]; Flood, scale 0 to 100): 0%; plant injury at 62 g/ha (rice (Oryza sativa); Flood, scale 0 to 100): 0%; pest or weed control at 62 g/ha ([7]; Flood, scale 0 to 100): 0%
Cn1ncc(O)c(-c2nn(-c3ccc(C(F)(F)F)cc3)cc2Br)c1=O [Compound 87, 4-[4-bromo-1-[4-(trifluoromethyl)phenyl]-1H-pyrazol-3-yl]-5-hydroxy-2-methyl-3(2H)-pyridazinone]	80	70	90	50	50	20	0	0	0	0	0	0	10	20	0	0	20	0	0	0	pest or weed control at 62 g/ha ([5]; Flood, scale 0 to 100): 0%; pest or weed control at 62 g/ha ([6]; Flood, scale 0 to 100): 0%; plant injury at 62 g/ha (rice (Oryza sativa); Flood, scale 0 to 100): 0%; pest or weed control at 62 g/ha ([7]; Flood, scale 0 to 100): 0%
